The source made the active and inactive calls. Unless noted, the calls are words filed in the database; no cut-off is given here.
Key:
CAAX prenyl protease 2 [1] = target: T1, CAAX prenyl protease 2 (Saccharomyces cerevisiae S288c, UniProt Q03530); assay type: biochemical
T1 sequence (Q03530 whole entry): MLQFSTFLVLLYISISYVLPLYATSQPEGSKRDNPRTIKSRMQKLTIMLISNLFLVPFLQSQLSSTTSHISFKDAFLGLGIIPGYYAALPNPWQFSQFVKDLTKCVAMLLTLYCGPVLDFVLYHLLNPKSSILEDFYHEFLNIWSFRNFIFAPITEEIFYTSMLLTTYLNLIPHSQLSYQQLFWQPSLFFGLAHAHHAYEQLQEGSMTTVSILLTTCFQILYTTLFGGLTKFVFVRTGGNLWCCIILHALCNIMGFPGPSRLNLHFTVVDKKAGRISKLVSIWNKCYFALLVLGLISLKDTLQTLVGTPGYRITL

CAAX prenyl protease 2 [2] = target: T1, CAAX prenyl protease 2; assay: yeast Rce1 CaaX protease inhibitors, dose response, biochemical, plate reader, dry powder retest (AID 588851)
[3] = target: T2, Corticotropin-releasing factor receptor 2/Corticotropin-releasing factor-binding protein (Homo sapiens, UniProt P24387+Q13324); assay: Dose Response confirmation of uHTS hits for small molecule antagonists of the CRF-binding protein and CRF-R2 receptor complex.; assay type: functional; conditions: read-out: IC50_Mean
T2 sequence (Q13324 whole entry): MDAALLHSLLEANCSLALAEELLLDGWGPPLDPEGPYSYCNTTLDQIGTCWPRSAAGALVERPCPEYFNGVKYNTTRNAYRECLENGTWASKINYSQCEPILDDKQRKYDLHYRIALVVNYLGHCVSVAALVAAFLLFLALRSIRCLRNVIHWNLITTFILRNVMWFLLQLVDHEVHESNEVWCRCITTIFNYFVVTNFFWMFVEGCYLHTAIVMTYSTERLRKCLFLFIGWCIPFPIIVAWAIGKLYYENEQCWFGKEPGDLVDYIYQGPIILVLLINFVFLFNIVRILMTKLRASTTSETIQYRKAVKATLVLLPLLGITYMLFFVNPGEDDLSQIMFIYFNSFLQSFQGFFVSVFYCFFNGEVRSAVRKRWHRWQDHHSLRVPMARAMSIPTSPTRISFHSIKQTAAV
T2 sequence (P24387 whole entry): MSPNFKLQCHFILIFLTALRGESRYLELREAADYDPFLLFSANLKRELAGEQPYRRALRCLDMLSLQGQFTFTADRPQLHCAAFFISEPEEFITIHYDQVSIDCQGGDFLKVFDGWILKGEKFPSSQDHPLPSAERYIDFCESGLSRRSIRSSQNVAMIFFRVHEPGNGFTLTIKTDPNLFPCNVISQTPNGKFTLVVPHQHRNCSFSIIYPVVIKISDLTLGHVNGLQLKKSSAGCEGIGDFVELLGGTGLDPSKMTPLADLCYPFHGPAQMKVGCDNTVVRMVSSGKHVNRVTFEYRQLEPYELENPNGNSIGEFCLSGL

[4] = target: T2, Corticotropin-releasing factor receptor 2/Corticotropin-releasing factor-binding protein; assay: activators of CRF receptor 2 with binding protein – uHTS hits, confirmation (AID 602473); assay type: functional; conditions: read-out: EC50_Mean
[5] = CRF-BP/CRF-R2 complex antagonists, dose response, cell-based, uHTS hits, 384-well (AID 651639); assay type: functional, Homo sapiens; conditions: read-out: IC50_Mean
X-box-binding protein 1 = X-box-binding protein 1 (Homo sapiens, UniProt P17861); assay type: functional, Cricetulus griseus;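 further: confirmatory dose-response counter-screen serving a CHOP assay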
[6] = target: Glycogen synthase kinase-3 alpha (Homo sapiens, UniProt P49840); assay: Inhibition of Human GSK-3 alpha Activity Measured in Biochemical System Using Microfluidics - 2063-06_Inhibitor_Dose_DryPowder_Activity_Set2. [Related pubchem assays (depositor defined):AID2709]
[7] = target: Glycogen synthase kinase-3 beta (Homo sapiens, UniProt P49841); assay: Inhibition of Human GSK-3 beta Activity Measured in Biochemical System Using Microfluidics - 2063-05_Inhibitor_Dose_DryPowder_Activity_Set2. [Related pubchem assays (depositor defined):AID2709]
Chain of Glycogen synthase kinase-3 beta (P49841 whole entry): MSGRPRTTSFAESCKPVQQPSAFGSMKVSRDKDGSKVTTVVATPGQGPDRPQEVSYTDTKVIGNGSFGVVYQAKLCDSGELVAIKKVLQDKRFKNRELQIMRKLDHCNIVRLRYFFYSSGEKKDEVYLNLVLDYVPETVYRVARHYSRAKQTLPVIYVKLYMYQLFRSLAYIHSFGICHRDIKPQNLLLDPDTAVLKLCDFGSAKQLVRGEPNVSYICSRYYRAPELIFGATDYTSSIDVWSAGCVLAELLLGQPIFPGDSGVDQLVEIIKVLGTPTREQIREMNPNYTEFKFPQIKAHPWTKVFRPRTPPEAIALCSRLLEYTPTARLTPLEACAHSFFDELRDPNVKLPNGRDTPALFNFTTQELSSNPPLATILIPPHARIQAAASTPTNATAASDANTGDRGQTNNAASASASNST

[8] = target: Cyclin-dependent kinase 5/CDK5 activator 1 (Homo sapiens, UniProt Q00535); assay: CDK5-p25 kinase inhibitors, specificity check, dose response, selectivity assay for GSK-3 alpha inhibitor project, biochemical, microfluidic mobility shift, dry powder (AID 588430)
Chain of Cyclin-dependent kinase 5/CDK5 activator 1 (Q00535 whole entry): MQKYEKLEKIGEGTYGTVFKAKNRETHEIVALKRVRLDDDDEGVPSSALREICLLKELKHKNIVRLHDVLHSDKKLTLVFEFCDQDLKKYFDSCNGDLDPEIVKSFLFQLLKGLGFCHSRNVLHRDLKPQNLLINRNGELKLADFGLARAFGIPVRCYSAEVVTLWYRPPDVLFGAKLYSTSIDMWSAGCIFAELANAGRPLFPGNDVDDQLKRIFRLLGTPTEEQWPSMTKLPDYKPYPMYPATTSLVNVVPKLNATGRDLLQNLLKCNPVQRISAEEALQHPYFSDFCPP
Chain of Cyclin-dependent kinase 5/CDK5 activator 1 (Q15078 whole entry, further chain): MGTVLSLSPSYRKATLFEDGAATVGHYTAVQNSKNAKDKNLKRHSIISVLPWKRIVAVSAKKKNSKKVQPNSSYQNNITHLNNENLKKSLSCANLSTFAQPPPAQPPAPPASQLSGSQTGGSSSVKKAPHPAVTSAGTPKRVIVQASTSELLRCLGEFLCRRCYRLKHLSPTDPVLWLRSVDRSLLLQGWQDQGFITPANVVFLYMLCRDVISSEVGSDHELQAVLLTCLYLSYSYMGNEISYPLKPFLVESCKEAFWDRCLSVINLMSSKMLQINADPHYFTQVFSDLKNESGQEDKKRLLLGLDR

[9] = target: Protein disulfide-isomerase (Homo sapiens, UniProt P07237); assay: PDI inhibitors, insulin aggregation turbidity, dose response, biochemical, absorbance, cherry-picked samples (AID 602350); assay type: functional
[10] = target: Multidrug resistance protein CDR1 (Candida albicans, UniProt P43071); assay: CaCDR1 efflux pump inhibitors in yeast, dose response, S. cerevisiae AD1-8u, singleplex, Cherry Pick1 hits (AID 588606); assay type: functional
Chain of Multidrug resistance protein CDR1 (P43071 whole entry, looked up): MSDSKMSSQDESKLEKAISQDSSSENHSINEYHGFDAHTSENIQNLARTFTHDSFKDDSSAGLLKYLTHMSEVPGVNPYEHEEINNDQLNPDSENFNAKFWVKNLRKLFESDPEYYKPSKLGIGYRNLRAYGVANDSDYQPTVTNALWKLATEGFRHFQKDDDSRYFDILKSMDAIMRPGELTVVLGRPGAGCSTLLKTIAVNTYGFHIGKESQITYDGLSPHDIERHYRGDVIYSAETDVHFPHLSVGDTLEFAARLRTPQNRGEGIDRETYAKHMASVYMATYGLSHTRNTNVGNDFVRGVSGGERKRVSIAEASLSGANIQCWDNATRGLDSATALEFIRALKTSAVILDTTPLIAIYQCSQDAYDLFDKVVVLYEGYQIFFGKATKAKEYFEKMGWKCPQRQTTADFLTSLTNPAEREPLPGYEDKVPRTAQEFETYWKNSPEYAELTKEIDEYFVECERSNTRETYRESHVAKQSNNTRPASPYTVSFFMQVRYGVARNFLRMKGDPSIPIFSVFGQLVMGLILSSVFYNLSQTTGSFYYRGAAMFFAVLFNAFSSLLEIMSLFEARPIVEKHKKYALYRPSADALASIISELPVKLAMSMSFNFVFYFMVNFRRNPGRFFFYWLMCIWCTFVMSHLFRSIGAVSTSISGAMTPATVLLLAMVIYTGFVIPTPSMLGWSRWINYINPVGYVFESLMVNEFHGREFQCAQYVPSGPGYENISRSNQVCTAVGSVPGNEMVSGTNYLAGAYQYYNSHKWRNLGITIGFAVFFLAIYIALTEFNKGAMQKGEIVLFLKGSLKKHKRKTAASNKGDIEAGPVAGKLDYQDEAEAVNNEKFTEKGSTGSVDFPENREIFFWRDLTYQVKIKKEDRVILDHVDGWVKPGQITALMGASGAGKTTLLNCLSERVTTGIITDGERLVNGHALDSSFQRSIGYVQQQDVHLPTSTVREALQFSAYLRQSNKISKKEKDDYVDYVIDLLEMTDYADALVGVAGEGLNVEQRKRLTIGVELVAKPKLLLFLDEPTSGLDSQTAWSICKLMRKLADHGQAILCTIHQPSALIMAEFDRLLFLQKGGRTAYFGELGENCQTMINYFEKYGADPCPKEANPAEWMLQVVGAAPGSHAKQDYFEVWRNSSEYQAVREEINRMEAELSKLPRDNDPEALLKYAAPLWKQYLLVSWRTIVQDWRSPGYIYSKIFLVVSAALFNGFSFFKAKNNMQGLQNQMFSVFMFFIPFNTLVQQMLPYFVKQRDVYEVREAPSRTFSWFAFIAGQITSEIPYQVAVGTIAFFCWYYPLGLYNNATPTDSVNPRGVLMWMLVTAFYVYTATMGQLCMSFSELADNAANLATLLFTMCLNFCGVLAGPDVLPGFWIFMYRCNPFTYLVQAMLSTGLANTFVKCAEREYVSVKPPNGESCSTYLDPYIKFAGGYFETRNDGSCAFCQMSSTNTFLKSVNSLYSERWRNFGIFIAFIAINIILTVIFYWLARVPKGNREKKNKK

[11] = NIH-3T3 fibroblast cytotoxicity, dose response, cytotoxicity control, cell-based, fluorescence, Alamar Blue, secondary assay (AID 2327); assay type: functional;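 further: NIH-3T3 mouse fibroblasts cultured with fluconazole at 8 µg/mL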
[12] = C. albicans growth with fluconazole, confirmation, fluorescence, retest (AID 2467); assay type: functional, cell-based
Candida albicans [13] = assay: growth inhibition of resistant C. albicans, dose response, CaCi-8, fluconazole, Alamar Blue, dry powder (AID 488807); assay type: functional, organism-based
Candida albicans [14] = assay: single-agent growth inhibition of C. albicans, dose response, counter-screen for antifungal drug resistance project, C. albicans CaCi-2, dry powder (AID 488802); assay type: functional, organism-based
[15] = target: G-protein coupled receptor 55 (Homo sapiens, UniProt Q9Y2T6); assay: GPR55 agonists via beta-arrestin recruitment, primary screen, imaging, U2OS cells, beta-arrestin-GFP redistribution (AID 1961); assay type: functional
Chain of G-protein coupled receptor 55 (Q9Y2T6 whole entry): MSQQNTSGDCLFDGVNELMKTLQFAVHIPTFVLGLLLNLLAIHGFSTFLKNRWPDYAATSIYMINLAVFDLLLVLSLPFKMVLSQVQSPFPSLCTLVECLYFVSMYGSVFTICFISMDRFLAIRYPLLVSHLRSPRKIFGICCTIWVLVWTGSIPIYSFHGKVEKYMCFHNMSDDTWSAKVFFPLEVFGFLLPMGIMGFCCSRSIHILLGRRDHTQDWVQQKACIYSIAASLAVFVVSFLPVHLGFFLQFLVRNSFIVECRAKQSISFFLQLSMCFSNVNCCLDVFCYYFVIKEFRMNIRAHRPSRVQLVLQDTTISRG

[16] = target: T3, High affinity choline transporter 1 (Homo sapiens, UniProt Q9GZV3); assay: CHT activators, dose response, cell-based, 10-point CRC, membrane potential dye (AID 602376); assay type: functional
T3 sequence (Q9GZV3 whole entry): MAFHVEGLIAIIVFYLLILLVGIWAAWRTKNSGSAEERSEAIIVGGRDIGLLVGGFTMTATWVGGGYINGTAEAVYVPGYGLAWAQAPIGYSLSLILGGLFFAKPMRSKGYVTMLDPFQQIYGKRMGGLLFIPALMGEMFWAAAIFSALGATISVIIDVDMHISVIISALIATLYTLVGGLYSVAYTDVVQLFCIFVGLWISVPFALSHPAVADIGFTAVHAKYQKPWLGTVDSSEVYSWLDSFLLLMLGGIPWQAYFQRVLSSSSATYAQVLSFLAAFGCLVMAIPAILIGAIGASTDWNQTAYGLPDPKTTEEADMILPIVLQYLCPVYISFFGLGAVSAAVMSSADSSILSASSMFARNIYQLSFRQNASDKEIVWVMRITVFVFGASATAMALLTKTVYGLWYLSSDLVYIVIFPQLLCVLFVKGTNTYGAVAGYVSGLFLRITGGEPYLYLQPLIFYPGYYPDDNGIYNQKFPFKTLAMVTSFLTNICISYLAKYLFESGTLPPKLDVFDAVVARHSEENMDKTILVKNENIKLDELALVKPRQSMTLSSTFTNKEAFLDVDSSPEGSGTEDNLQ

Erythrocyte = assay: FACS-based assay to assess parasite growth inhibition 96 hr Measured in Cell-Based System Using Flow Cytometry - 2126-05_Inhibitor_Dose_DryPowder_Activity. [Related pubchem assays (depositor defined):AID488774]; assay type: functional; conditions: Homo sapiens
[17] = FACS-based assay to assess parasite growth inhibition 48 hr Measured in Cell-Based System Using Flow Cytometry - 2126-03_Inhibitor_Dose_DryPowder_Activity. [Related pubchem assays (depositor defined):AID488774]; assay type: functional; conditions: Homo sapiens
[18] = A cell-based HTS for delayed death inhibitors of the malarial parasite plastid Measured in Microorganism System Using Plate Reader - 2126-02_Inhibitor_Dose_DryPowder_Activity.; assay type: functional, organism-based
[19] = A cell-based HTS for delayed death inhibitors of the malarial parasite plastid Measured in Microorganism System Using Plate Reader - 2126-01_Inhibitor_Dose_DryPowder_Activity.; assay type: functional, organism-based
[20] = Vero cell cytotoxicity, cytotoxicity control for M. tuberculosis inhibitor project, purified and synthesized samples, set 8 (AID 602431); assay type: functional; conditions: Mycobacterium tuberculosis
[21] = HepG2 cell cytotoxicity, cytotoxicity control, set 6 (AID 602432); assay type: functional; conditions: Mycobacterium tuberculosis
[22] = THP-1 cell cytotoxicity, cytotoxicity control, set 6 (AID 602433); assay type: functional; conditions: Mycobacterium tuberculosis
[23] = target: ALK tyrosine kinase receptor (Homo sapiens, UniProt Q9UM73); assay type: functional;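 further: ALK tested as one member of a kinase panel screen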
Chain of ALK tyrosine kinase receptor (Q9UM73 whole entry): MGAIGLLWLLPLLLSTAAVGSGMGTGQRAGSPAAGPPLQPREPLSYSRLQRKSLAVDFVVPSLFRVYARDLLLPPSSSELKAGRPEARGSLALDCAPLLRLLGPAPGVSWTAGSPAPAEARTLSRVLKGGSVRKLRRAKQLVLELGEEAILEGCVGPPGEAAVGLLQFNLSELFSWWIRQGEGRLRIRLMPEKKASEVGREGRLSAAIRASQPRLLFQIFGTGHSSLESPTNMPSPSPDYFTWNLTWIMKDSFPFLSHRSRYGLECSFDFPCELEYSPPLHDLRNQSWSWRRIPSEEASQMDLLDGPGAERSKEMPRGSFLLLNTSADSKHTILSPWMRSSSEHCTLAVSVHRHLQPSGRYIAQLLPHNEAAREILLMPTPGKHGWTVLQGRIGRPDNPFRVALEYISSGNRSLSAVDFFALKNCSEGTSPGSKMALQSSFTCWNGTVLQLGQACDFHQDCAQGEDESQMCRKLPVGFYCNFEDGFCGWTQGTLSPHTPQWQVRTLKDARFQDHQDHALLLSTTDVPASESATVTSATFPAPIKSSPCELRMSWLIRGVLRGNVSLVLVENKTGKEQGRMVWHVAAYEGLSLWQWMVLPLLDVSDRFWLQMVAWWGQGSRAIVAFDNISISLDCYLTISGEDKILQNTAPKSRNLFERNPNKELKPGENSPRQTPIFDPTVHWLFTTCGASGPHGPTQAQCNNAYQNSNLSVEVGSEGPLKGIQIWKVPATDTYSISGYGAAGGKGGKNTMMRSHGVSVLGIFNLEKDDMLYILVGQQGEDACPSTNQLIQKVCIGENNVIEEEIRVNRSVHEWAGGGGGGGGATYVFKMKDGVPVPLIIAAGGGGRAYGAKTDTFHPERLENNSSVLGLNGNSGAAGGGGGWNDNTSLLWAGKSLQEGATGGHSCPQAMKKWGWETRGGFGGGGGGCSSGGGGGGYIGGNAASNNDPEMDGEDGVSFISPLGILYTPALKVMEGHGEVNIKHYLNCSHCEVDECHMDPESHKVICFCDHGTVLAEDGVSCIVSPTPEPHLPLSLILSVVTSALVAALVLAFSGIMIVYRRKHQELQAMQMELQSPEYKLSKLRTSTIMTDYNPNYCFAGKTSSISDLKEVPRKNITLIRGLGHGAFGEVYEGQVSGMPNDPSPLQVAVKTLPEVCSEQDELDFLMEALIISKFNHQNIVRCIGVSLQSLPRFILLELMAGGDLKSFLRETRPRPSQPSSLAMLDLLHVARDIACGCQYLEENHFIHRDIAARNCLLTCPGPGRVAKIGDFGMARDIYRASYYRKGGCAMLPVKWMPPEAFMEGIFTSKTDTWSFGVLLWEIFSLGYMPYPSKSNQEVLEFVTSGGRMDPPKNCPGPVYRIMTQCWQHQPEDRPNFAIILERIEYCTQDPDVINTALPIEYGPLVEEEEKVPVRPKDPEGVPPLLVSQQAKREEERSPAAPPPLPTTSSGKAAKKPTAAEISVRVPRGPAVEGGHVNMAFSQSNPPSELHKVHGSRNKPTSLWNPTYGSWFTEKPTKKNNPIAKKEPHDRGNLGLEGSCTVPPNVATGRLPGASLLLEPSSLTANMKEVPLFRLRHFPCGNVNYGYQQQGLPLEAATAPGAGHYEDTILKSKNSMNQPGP

[24] = target: Cyclin-dependent kinase 19 (Homo sapiens, UniProt Q9BWU1); assay: Navigating the Kinome. Panel member name: CDC2L6; assay type: functional
Chain of Cyclin-dependent kinase 19 (Q9BWU1 whole entry): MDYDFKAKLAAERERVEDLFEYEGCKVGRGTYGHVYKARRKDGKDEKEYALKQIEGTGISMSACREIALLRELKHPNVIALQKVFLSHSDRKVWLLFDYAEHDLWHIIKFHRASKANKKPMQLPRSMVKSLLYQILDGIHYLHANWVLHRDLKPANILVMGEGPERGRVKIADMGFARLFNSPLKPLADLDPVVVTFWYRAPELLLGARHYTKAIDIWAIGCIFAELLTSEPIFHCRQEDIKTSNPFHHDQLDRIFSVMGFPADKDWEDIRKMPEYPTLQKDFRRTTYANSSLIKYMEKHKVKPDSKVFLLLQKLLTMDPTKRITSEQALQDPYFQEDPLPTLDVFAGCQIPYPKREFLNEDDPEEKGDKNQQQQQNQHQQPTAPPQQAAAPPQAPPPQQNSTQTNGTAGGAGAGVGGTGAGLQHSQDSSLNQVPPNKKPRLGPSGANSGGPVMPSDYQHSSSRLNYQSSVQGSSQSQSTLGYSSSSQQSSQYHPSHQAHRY

[25] = Vero cell cytotoxicity, dose response, cytotoxicity control for M. tuberculosis growth inhibitor project, Vero cells, purified and synthesized compounds, set 4 (AID 504854); assay type: functional; conditions: Mycobacterium tuberculosis
Insulin-degrading enzyme [26] = target: T4, Insulin-degrading enzyme (Homo sapiens, UniProt P14735); assay: activators of recombinant IDE enzyme, dose response, counter-screen for IDE activator project, biochemical, fluorescence polarization (AID 588681)
T4 sequence (P14735 whole entry): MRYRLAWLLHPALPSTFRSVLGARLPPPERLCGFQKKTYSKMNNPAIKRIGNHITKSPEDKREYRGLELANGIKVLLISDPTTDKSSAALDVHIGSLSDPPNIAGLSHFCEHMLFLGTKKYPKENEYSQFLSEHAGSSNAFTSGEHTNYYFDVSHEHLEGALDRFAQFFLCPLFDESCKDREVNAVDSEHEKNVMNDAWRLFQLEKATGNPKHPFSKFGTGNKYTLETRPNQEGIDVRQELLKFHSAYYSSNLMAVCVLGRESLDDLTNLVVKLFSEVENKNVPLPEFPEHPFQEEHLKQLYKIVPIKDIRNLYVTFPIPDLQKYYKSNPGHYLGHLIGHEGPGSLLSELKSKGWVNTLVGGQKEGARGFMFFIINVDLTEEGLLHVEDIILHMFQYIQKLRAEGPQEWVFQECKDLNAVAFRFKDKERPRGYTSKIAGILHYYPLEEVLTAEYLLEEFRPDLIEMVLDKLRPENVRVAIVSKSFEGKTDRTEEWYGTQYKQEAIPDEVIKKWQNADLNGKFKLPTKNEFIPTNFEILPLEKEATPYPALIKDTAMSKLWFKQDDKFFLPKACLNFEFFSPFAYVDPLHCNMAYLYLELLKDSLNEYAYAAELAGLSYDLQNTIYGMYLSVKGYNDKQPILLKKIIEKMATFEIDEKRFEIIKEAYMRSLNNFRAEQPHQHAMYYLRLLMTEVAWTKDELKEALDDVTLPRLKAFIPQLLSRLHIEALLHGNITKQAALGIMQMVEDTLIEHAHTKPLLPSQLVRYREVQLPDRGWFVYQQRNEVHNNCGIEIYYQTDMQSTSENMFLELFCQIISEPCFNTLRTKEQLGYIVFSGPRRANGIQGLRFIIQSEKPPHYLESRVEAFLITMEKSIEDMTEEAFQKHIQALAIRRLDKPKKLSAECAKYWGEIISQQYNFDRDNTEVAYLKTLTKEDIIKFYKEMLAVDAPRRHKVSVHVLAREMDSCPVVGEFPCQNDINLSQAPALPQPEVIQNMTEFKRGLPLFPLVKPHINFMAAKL

Insulin-degrading enzyme [27] = target: T4, Insulin-degrading enzyme; assay: activators of endogenous IDE in HEK cells, dose response, cell-based, fluorescence polarization (AID 588439); assay type: functional
HEK293 [28] = assay: HEK cell cytotoxicity by LDH release, dose response, cytotoxicity control for IDE activator project, fluorescence, HEK cells (AID 588440); assay type: functional, cell-based; conditions: Homo sapiens;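 further: cytotoxicity by LDH release measuring loss of membrane integrity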
HEK293 [29] = assay: optical interference in Abeta FP readout, dose response, artefact control for IDE activator project, biochemical, fluorescence polarization (AID 588442); assay type: functional, cell-based; conditions: Homo sapiens

## CCOc1ccc(-n2c(SCc3ccc([N+](=O)[O-])cc3)nnc2-c2ccc(OC)cc2)cc1
CAAX prenyl protease 2 [1]
  AC50: 0.102 µM (active)
CAAX prenyl protease 2 [2]
  AC50: 1.12 µM (active)
[3]
  IC50: 1.68 µM (active)
[4]
  EC50: > 53 µM (inactive)
[5]
  IC50: > 20 µM (inactive)

## O=C(Nc1cccc(Cl)c1)Nc1ccnc(-c2cccnc2)n1
X-box-binding protein 1
  Absolute IC50 (XBP1): 10 µM
[6]
  AC50: 3.97 µM (active)
[7]
  AC50: 0.716 µM (active)
[8]
  AC50: 20.8 µM (active)

## CCN(CC)CCNC(=O)C(C(=O)c1ccccc1)n1ccccc1=O (stereo unspecified)
[9]
  AC50: 2.16 µM (active)

## CC(C)=C1C2CCC1C1C(=O)N(c3nc(-c4ccc(C(C)C)cc4)c(C)s3)C(=O)C21 (stereo unspecified)
[10]
  EC50: 3.79 µM (active)

## CC1CCN(C(=O)Cn2c3ccccc3c3nc4n(c(=O)c32)CCS4)CC1
[11]
  EC50: > 160 µM (inconclusive)
[12]
  EC50: 0.979 µM (active)
Candida albicans [13]
  AC50: 1.97 µM (active)
Candida albicans [14]
  AC50: 108 µM (active)

## CSc1ccc(-c2sc(Nc3ccccc3)n[n+]2-c2ccccc2)cc1
[15]
  EC50: > 32 µM (inactive)
[16]
  EC50: 7.33 µM (active)

## COc1ccc(COC[C@H](C)N2C[C@@H](C)[C@H](CN(C)S(=O)(=O)c3ccc(F)cc3)OCCCC[C@H](C)Oc3ccc(NC(=O)Nc4ccccc4)cc3C2=O)cc1
Erythrocyte
  AC50: 0.001 µM (active)
[17]
  AC50: 0.0008 µM (active)
[18]
  AC50: 0.00018 µM (active)
[19]
  AC50: 0.000294 µM (active)

## COc1ccc(N2CCN(C(=O)c3ccc(CNc4c(N5CCCC(C)C5)c(=O)c4=O)cc3)CC2)cc1 (stereo unspecified)
[20]
  CC50: > 100 µM (inconclusive)
[21]
  CC50: > 50 µM (inconclusive)
[22]
  CC50: > 98.4 µM (active)

## O=C(O)c1c(Cl)ccc2cc(-n3cccc3)cnc12
[23]
  Ki: 3.98 µM (active)
[24]
  Ki: > 100 µM (inactive)

## CC(C)CCNC(=O)CSc1nc2c(c(=O)[nH]1)CCC2
[25]
  CC50: > 100 µM (active)

## Cc1ccc2c(c1)c1c(n2CC(O)CNC2CCCC2)CCCC1 (stereo unspecified)
Insulin-degrading enzyme [26]
  EC50: > 54.7 µM (inactive)
Insulin-degrading enzyme [27]
  EC50: > 54.7 µM (inactive)
HEK293 [28]
  IC50: 61.9 µM (inactive)
HEK293 [29]
  EC50: > 55.9 µM (inactive)

Source: ChEMBL document CHEMBL1201862, “PubChem BioAssay data set” (2004)
